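Assay format: 96-well plates, 48-hour exposure. The concentration for 50% growth inhibition is given as GI50. At the TGI there is no net growth.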 Where a SMILES comes first, the peptide text is derived from it. The star is where a group is joined. Cbz = O=C(OCc1ccccc1)*; CH2Cl = ClC*
System: HOP-62 NSCLC
Experiment: NCI anticancer screen, dose series, 48 h

| SMILES | GI50 | TGI |
| --- | --- | --- |
| O=C(N[C@@H](c1ccc(Cl)c(Cl)c1)C1CNC1)c1ccc2cnccc2c1 | 0.34 µM | 11.5 µM |
| CO/N=C(\COc1ccc2c(c1)oc(=O)c1cc(OC)ccc12)c1ccc(OC)cc1 | > 100 µM | > 100 µM |
| O=C1OCC2=C1C(c1cccc(Br)c1)c1cc3c(cc1N2CCO)CCC3 (stereo not drawn) | 0.0888 µM | 7.11 µM |
| Clc1ccc2[nH]cc(-c3nnnn3-c3ccccc3)c2c1 | 28 µM | > 100 µM |
| CC(=O)OC12C=CC(=O)N1c1ccccc1C(=O)O2 (stereo not drawn) | – | > 100 µM |
| CCCC(=O)Nc1cc2c3c(c1)CCCN3CCC2 | – | > 10 µM |
| COc1cc(-c2cc(-c3cc4c([nH]c5ccccc54)c(-c4cc(OC)c(OC)c(OC)c4)n3)cc(-c3ccccc3)n2)cc(OC)c1OC | 4.53 µM | > 100 µM |
| O=C1C=CC(=O)c2cc3cc(CBr)ccc3cc21 | 16 µM | 37.8 µM |
| CC(C)Oc1ccc2cc(-c3nn(CC4CCNCC4)c4ncnc(N)c34)ccc2c1 | 15.6 µM | 31.4 µM |
| COc1cc(F)ccc1-c1ncnc(Nc2cccc(CS(C)(=N)=O)c2)n1 (stereo not drawn) | 0.564 µM | 8.38 µM |
| CS(=O)(=O)CCNCc1nc(-c2ccc3ncnc(Nc4ccc(OCc5cccc(C(F)(F)F)c5)cc4)c3c2)cs1 | 5.5 µM | 12.9 µM |
| CC(C)CC(NC(=O)OCc1ccccc1)C(=O)NC(Cc1ccccc1)C(=O)CCl (stereo not drawn) (Cbz-Leu-Phe-CH2Cl; configuration not given here) | – | 30.5 µM |
| [Cl][Hg][c]1cc[c]([Hg][Cl])o1 | 13.5 µM | 28.4 µM |
| CCOC(=O)C(Cc1ccc(CCCC(=O)NCCC(=O)Nc2ccc3nc(C)sc3c2)cc1)C(=O)OCC | > 83.3 µM | > 100 µM |
| NCCNc1c2c(c(NCCN)c3[nH]ccc13)C(=O)c1ccccc1C2=O | – | 0.624 µM |
| Cc1c2c(C#N)nccc2c(C)c2c1c1ccccc1n2Cc1ccccc1 | – | > 100 µM |
| CCOC(=O)Nc1ccc(-c2nc(-c3cccc(OCCN4CCOCC4)c3)c(-c3ccnc(Br)c3)[nH]2)cc1 | 3.1 µM | > 100 µM |
| COc1cc(Cn2c(-c3ccccc3)c(Cl)c3c2-c2oncc2CC3)cc(OC)c1 | 44 µM | > 100 µM |
| COc1ccc(-c2nn(-c3ccc(NC(=O)c4ccc(Cl)c(Cl)c4)cc3)cc2-c2ccncc2)cc1Cl | 1.62 µM | 17 µM |
| CN(C)C(n1cc2c(c1)-c1ccc(Cl)cc1C(c1ccccc1F)=NC2)n1cc2c(c1)-c1ccc(Cl)cc1C(c1ccccc1F)=NC2 | – | > 100 µM |
| COc1cccc2c1C(=O)c1c(O)c3c(c(O)c1C2=O)C[C@](O)(C(=O)CO)C[C@H]3O[C@@H]1C[C@@H](NC(=O)CCCCCN(C)C2(c3ccc(F)cc3)CC3CCC2C3)[C@H](O)[C@@H](C)O1 (stereo partly drawn) | 2.03 µM | 10 µM |

System: KM12 colon
Experiment: NCI anticancer screen, dose series, 48 h

| SMILES | TGI | GI50 |
| --- | --- | --- |
| O=C(O)Cc1cc(Cl)ccc1O | > 100 µM | – |
| COc1ccc(C(=O)/C=C/c2cc(-c3cc(OC)c(OC)c(OC)c3)n[nH]2)cc1OC | 2.41 µM | 1.07 µM |
| C=C(C)[C@@H]1CC[C@]2(C)[C@H](CC=C3[C@@H]4CC(C)(C)CC[C@]4(C(N)=O)CC[C@]32C)[C@@]1(C)CCC#N | 14.8 µM | 3.1 µM |
| COc1c(OC[C@H](O)CN2CCOCC2)ccc2c3n(c(=NC(=O)c4cccnc4C)nc12)CCN3 | > 50 µM | 40.7 µM |
| O=C(c1ccccc1Br)C(F)(F)F | > 100 µM | – |
| COc1ccc(-c2nc3ccc(-c4nc5ccc(N6CCN(c7ccccc7)CC6)cc5[nH]4)cc3[nH]2)cc1OC | 4.01 µM | 1.84 µM |
| O=C(N[C@@H](c1ccc(Cl)c(Cl)c1)C1CNC1)c1ccc2cnccc2c1 | 4.44 µM | 0.314 µM |
| CO/N=C(\COc1ccc2c(c1)oc(=O)c1cc(OC)ccc12)c1ccc(OC)cc1 | > 100 µM | > 100 µM |
| O=C1OCC2=C1C(c1cccc(Br)c1)c1cc3c(cc1N2CCO)CCC3 (stereo not drawn) | 1.04 µM | 0.0329 µM |
| Clc1ccc2[nH]cc(-c3nnnn3-c3ccccc3)c2c1 | 19 µM | 2.99 µM |
| CC(=O)OC12C=CC(=O)N1c1ccccc1C(=O)O2 (stereo not drawn) | > 100 µM | – |
| CCCC(=O)Nc1cc2c3c(c1)CCCN3CCC2 | > 10 µM | – |
| COc1cc(-c2cc(-c3cc4c([nH]c5ccccc54)c(-c4cc(OC)c(OC)c(OC)c4)n3)cc(-c3ccccc3)n2)cc(OC)c1OC | > 100 µM | 4.09 µM |
